Measurements as given in PMC6408276 (ACS infectious diseases, 2019).
“And” between values parts separate entries of the source, which are not always exact repeats. Identical values can stand only once.

Experiments:
NIH/3T3 = details: cited from earlier work
[1] = cited from earlier work
[2] = system: Colombiana strain of Trypanosoma cruzi; test: Assessment of therapeutic failure after cyclophosphamide immunosuppression; type: in vivo; details: for Blood parasite load determined by qPCR: n=5, after cyclophosphamide; for Blood parasite load determined by qPCR / % Negative blood qPCR: VFV in 10 % DMSO plus 5 % Gum Arabic; for % Blood parasite clearence (negative qPCR): n=10, after cyclophosphamide immunosuppression, VFV in DGAT; for % Negative blood qPCR: surviving mice n=5, after cyclophosphamide
CYP3A4 = details: read-out: CYP3A4 IC50; cited from earlier work
[3] = PK studies in mice after single oral administration; type: in vivo; details: for Life time (time until compound becomes undetectable, below 0.1 μM): mice plasma; for Life time (time until compound becomes undetectable, below 0.1 μM) / Bioavailability when Tween 80 was added to the vehicle (DGAT vs HPCD): single oral 25 mg/kg; for Bioavailability when Tween 80 was added to the vehicle (DGAT vs HPCD): mice; for Tmax: mouse, po, 25 mg/kg
[4] = cited from earlier work; remark: listed apart in the source
[5] = system: Colombiana strain of Trypanosoma cruzi; test: Mouse model of T. cruzi infection: parasitemia, survival and natural relapse; type: in vivo
[6] = cited from earlier work; remark: listed apart in the source
[7] = Swiss male mice n=5, 60 days po, VNI and VFV in 10 % DMSO plus 5 % Gum Arabic
[8] = Swiss male mice n=10, 60 days po, VFV in DGAT

| Compound | EC25 (cellular toxicity) (NIH/3T3) [µM] | NOAEL (in vivo toxicity) [1] [mg/kg] | Blood parasite load determined by qPCR [2] | % Blood parasite clearence (negative qPCR) [2] [%] | % Negative blood qPCR [2] [%] | IC50 (CYP3A4) [µM] | Life time (time until compound becomes undetectable, below 0.1 μM) ([3]; HPCD formulation) [h] | Bioavailability when Tween 80 was added to the vehicle (DGAT vs HPCD) [3] | Tmax ([3]; in vivo) [h] | Hepatic clearance [4] | % Animal survival [5, 7] [%] | Natural relapse after the therapy [5, 7] | % Animal survival [5, 8] [%] | % Parasitemia suppression [5, 8] [%] | Natural relapse after the therapy [5, 8] | Sustained negative parasitemia after cyclophosphamide (light microscopy) ([2]; n=5, 10 % DMSO plus 5 % Gum Arabic vehicle) [%] | Life time (time until compound becomes undetectable, below 0.1 μM) ([3]; DGAT formulation) [h] | Tmax ([3]; plasma) [h] | % Parasitemia suppression [5, 7] [%] | Maximal concentration in mice plasma [6] [µM] |
| --- | --- | --- | --- | --- | --- | --- | --- | --- | --- | --- | --- | --- | --- | --- | --- | --- | --- | --- | --- | --- |
| O=C(N[C@@H](Cn1ccnc1)c1ccc(-c2ccc(F)cc2)cc1F)c1ccc(-c2nnc(-c3ccccc3)o2)cc1 [VFV, (R)-N-(1-(3,4′-difluorobiphenyl-4-yl)-2-(1H-imidazol-1-yl)ethyl)-4-(5-phenyl-1,3,4oxadiazol-2-yl)benzamide] | > 50 | > 200 | 905 ± 854 | 0 | 0 | 3.6 | <24 | three-fold higher bioavailability | 4 | moderate hepatic clearance | 100 | all animals and 5 out of 5 mice | 100 | 99.8 | 5 mice and 5 out of 10 mice |  |  |  |  |  |
| O=C(N[C@@H](Cn1ccnc1)c1ccc(Cl)cc1Cl)c1ccc(-c2nnc(-c3ccccc3)o2)cc1 [VNI, (R)-N-(1-(2,4-dichlorophenyl)-2-(1H-imidazol-1-yl)ethyl)-4-(5-phenyl-1,3,4-oxadi-azol-2 yl)benzamide] |  |  | 372 ± 528 |  | 20 |  | 10 | three-fold higher bioavailability |  |  | 100 | 3 out of five and 3 out of 5 mice |  |  |  | 20 | 16 | 2 | 99.9 |  |
| O=C(Cn1ccnc1[N+](=O)[O-])NCc1ccccc1 [Bz, benznidazole, reference compound] |  |  | 13038 ± 13612 | 30 | 0 |  |  |  |  |  | 100 | all animals and 5 out of 5 mice | 100 |  | 6 mice and 6 out of 10 mice |  |  |  |  |  |
